Where a name gives a salt, the structure may show the parent alone. Read-outs that look alike come from different tables or passages of the source.
Test system: NQO1 specific enzyme activity in BEAS-2B cells
Assay: BEAS-2B NQO1 MTT assay
Format: cell-based
Conditions: Homo sapiens, read-out: EC50 of NQO1 specific activity induction
Outline: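 NQO1 specific activity, an NRF2 activation marker, read kinetically as absorbance change at 570 nm for 30 min after MTT cocktail addition to crude lysates of BEAS-2B cells exposed 48 h to compound. Three-parameter fit of Delta OD/min against log concentration gives EC50; lysate portion used for Cell Titer Glo.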

[1] = BEAS-2B, 48 h, BEAS-2B cells, 48 hours with compound, MTT readout

In the case of CC[C@@H]1CN(Cc2cc(C(CCc3cn(CC)nn3)CC(=O)NS(C)(=O)=O)ccc2C)Cc2cnccc2O1 (stereo partly drawn) [Example 234, 5-(1-Ethyl-1H-1,2,3-triazol-4-yl)-3-(3-(((R)-2-ethyl-2,3-dihydropyrido[3,4-f][1,4]oxazepin-4(5H)-yl)methyl)-4-methylphenyl)-N-(methylsulfonyl)pentanamide], the EC50 [1] is reported as 1000 to 10000 nM.

Compound CC[C@@H]1CN(Cc2cc([C@@H](c3ccc4c(nnn4C)c3C)C(C)(C)C(=O)O)ccc2C)Cc2cnccc2O1 [Example 24, (S)-3-(1,4-Dimethyl-1H-benzo[d][1,2,3]triazol-5-yl)-3-(3-(((R)-2-ethyl-2,3-dihydropyrido[3,4-f][1,4]oxazepin-4(5H)-yl)methyl)-4-methylphenyl)-2,2-dimethylpropanoic Acid, Formic Acid Salt] has an EC50 (BEAS-2B, 48 h) of under 1 nM.

In the case of COc1cc(C(CC(=O)O)c2ccc(Cl)c(CN3CCCC(n4cccn4)C3)c2)c(C)c2nnn(C)c12 (stereo not shown) [Example 164, 3-(3-((3-(1H-pyrazol-1-yl)piperidin-1-yl)methyl)-4-chlorophenyl)-3-(7-methoxy-1,4-dimethyl-1H-benzo[d][1,2,3]triazol-5-yl)propanoic Acid, Formic Acid Salt], the EC50 [1] is reported as 100 to 1000 nM.

Cc1ccc(C(CC(=O)O)c2ccc3c(nnn3C)c2C)cc1Cn1nc(CC2CCCCC2)nc1C (stereo not shown) [Example 137, 3-(3-((3-(Cyclohexylmethyl)-5-methyl-1H-1,2,4-triazol-1-yl)methyl)-4-methylphenyl)-3-(1,4-dimethyl-1H-benzo[d][1,2,3]triazol-5-yl)propanoic Acid] was tested, and the EC50 [1] was 100 to 1000 nM.

Work on Cc1ccc(C(CC(=O)O)c2ccc3c(nnn3C)c2C)cc1CN1Cc2ccccc2O[C@@H](C)C1 (stereo partly drawn) [Example 98, 3-(1,4-Dimethyl-1H-benzo[d][1,2,3]triazol-5-yl)-3-(4-methyl-3-(((S)-2-methyl-2,3-dihydrobenzo[f][1,4]oxazepin-4(5H)-yl)methyl)phenyl)propanoic Acid, Formic Acid Salt] yielded an EC50 [1] of 100 to 1000 nM.

Work on CC[C@@H]1CN(Cc2cc(C(CC(=O)O)c3ccc4c(nnn4C)c3C)ccc2C)Cc2ccccc2O1 (stereo partly drawn) [Example 73, 3-(1,4-Diemthyl-1H-benzo[d][1,2,3]triazol-5-yl)-3-(3-(((R)-2-ethyl-2,3-dihydrobenzo[f][1,4]oxazepin-4(5H)-yl)methyl)-4-methylphenyl)propanonic acid, formic acid salt] yielded an EC50 [1] of 100 to 1000 nM.

With CCCC1CN(Cc2cc(C(CC(=O)O)c3ccc4c(nnn4C)c3C)ccc2C)Cc2ccccc2O1 (stereo not shown) [Example 71, 3-(1,4-dimethyl-1H-benzo[d][1,2,3]triazol-5-yl)-3-(4-methyl-3-((2-propyl-2,3-dihydrobenzo[f][1,4]oxazepin-4(5H)-yl)methyl)phenyl)propanoic Acid, Formic Acid Salt] the EC50 [1] was 100 to 1000 nM.

For CC[C@@H]1CN(Cc2cc([C@H](CC(=O)O)c3ccc4c(nnn4C)c3C)ccc2Cl)Cc2ncccc2O1 [Example 263, (S)-3-(4-chloro-3-(((R)-2-ethyl-2,3-dihydropyrido[2,3-f][1,4]oxazepin-4(5H)-yl)methyl)phenyl)-3-(1,4-dimethyl-1H-benzo[d][1,2,3]triazol-5-yl)propanoic acid], the EC50 [1] was 10 to 100 nM.

Compound CC[C@@H]1CN(Cc2cc([C@@H](c3ccc4c(nnn4C)c3C)C(C)(C)C(=O)N3CCSC3=O)ccc2C)Cc2cnccc2O1 [Example 256, 3-((S)-3-(1,4-Dimethyl-1H-benzo[d][1,2,3]triazol-5-yl)-3-(3-(((R)-2-ethyl-2,3-dihydropyrido[3,4-f][1,4]oxazepin-4(5H)-yl)methyl)-4-methylphenyl)-2,2-dimethylpropanoyl)thiazolidin-2-one, Trifluoroacetic Acid Salt] has an EC50 [1] of 10 to 100 nM.

With CCC1CCN(Cc2nccn2Cc2cc(C(c3ccc4c(nnn4C)c3C)C(C)(C)C(=O)O)ccc2C)CC1 (stereo not shown) [Example 140, 3-(1,4-Dimethyl-1H-benzo[d][1,2,3]triazol-5-yl)-3-(3-((2-((4-ethylpiperidin-1-yl)methyl)-1H-imidazol-1-yl)methyl)-4-methylphenyl)-2,2-dimethylpropanoic acid, formic acid salt] the EC50 [1] was 1000 to 10000 nM.

For CC[C@@H]1CN(Cc2cc([C@H](CC(=O)O)c3ccc4c(nnn4C)c3C)ccc2C)Cc2cccc(F)c2O1 [Example 58, (S)-3-(1,4-Dimethyl-1H-benzo[d][1,2,3]triazol-5-yl)-3-(3-(((R)-2-ethyl-9-fluoro-2,3-dihydrobenzo[f][1,4]oxazepin-4(5H)-yl)methyl)-4-methylphenyl)propanoic acid, Sodium salt], the EC50 [1] was 10 to 100 nM.

Work on CC[C@@H]1CN(Cc2cc(C(c3ccc4c(nnn4C)c3C)C(C)(C)C(=O)O)ccc2C)Cc2ccccc2O1 (stereo partly drawn) [Example 114, 3-(1,4-Dimethyl-1H-benzo[d][1,2,3]triazol-5-yl)-3-(3-(((R)-2-ethyl-2,3-dihydrobenzo[f][1,4]oxazepin-4(5H)-yl)methyl)-4-methylphenyl)-2,2-dimethylpropanoic Acid, Lithium Salt] yielded an EC50 (BEAS-2B cells, 48 hours with compound, MTT readout) of 100 to 1000 nM.

Compound CCC1Cc2ccc(F)cc2CN(Cc2cc(C(CC(=O)O)c3ccc4c(nnn4C)c3C)ccc2C)C1 (stereo not shown) [compound 107, 3-(1,4-dimethyl-1H-benzo[d][1,2,3]triazol-5-yl)-3-(3-((4-ethyl-8-fluoro-4,5-dihydro-1H-benzo[c]azepin-2(3H)-yl)methyl)-4-methylphenyl)propanoic acid] has an EC50 [1] of 10 to 100 nM.

In the case of Cc1ccc([C@H](c2ccc3c(nnn3C)c2C)C(C)(C)C(=O)O)cc1Cc1cnnn1CC1CCCCCC1 (single isomer, unassigned) [Example 242], the EC50 [1] is reported as 10 to 100 nM.

Cc1ccc2c(c1)CN(Cc1cc([C@@H](CC(=O)O)c3ccc4c(nnn4C)c3C)ccc1C)CC(C)(C)O2 [Example 175, (R)-3-(1,4-Dimethyl-1H-benzo[d][1,2,3]triazol-5-yl)-3-(4-methyl-3-((2,2,7-trimethyl-2,3-dihydrobenzo[f][1,4]oxazepin-4(5H)-yl)methyl)phenyl)propanoic Acid] gave an EC50 [1] of 10 to 100 nM.

CC[C@@H]1CN(Cc2cc([C@@H](CC(=O)O)c3ccc4c(nnn4C)c3C)ccc2C)Cc2cnccc2O1 [Example 43, (R)-3-(1,4-Dimethyl-1H-benzo[d][1,2,3]triazol-5-yl)-3-(3-(((R)-2-ethyl-2,3-dihydropyrido[3,4-f][1,4]oxazepin-4(5H)-yl)methyl)-4-methylphenyl)propanoic Acid, Formic Acid Salt] gave an EC50 [1] of 1000 to 10000 nM.

Work on CC[C@@H]1CN(Cc2cc([C@H](c3ccc4c(nnn4C)c3C)[C@H](C)C(=O)O)ccc2C)Cc2ccccc2O1 [Example 39, (2S,3R)-3-(1,4-Dimethyl-1H-benzo[d][1,2,3]triazol-5-yl)-3-(3-(((R)-2-ethyl-2,3-dihydrobenzo[f][1,4]oxazepin-4(5H)-yl)methyl)-4-methylphenyl)-2-methylpropanoic Acid] yielded an EC50 [1] of 10 to 100 nM.

In the case of CCn1nnc2c(Cl)c([C@H](c3ccc(C)c(CN4Cc5cccnc5OC(C)(C)C4)c3)[C@@H](C)C(=O)O)ccc21 [Example 194, (2R,3S)-3-(4-Chloro-1-ethyl-1H-benzo[d][1,2,3]triazol-5-yl)-3-(3-((2,2-dimethyl-2,3-dihydropyrido[3,2-f][1,4]oxazepin-4(5H)-yl)methyl)-4-methylphenyl)-2-methylpropanoic acid], the EC50 [1] is reported as 10 to 100 nM.

Compound CC[C@@H]1CN(Cc2cc([C@H](c3ccc4c(nnn4C)c3C)C(C)(C)C(=O)O)ccc2C)Cc2cnccc2O1 [Example 204, (R)-3-(1,4-Dimethyl-1H-benzo[d][1,2,3]triazol-5-yl)-3-(3-(((R)-2-ethyl-2,3-dihydropyrido[3,4-f][1,4]oxazepin-4(5H)-yl)methyl)-4-methylphenyl)-2,2-dimethylpropanoic Acid, 0.5 Ethanol] has an EC50 [1] of 100 to 1000 nM.

CC[C@@H]1CN(Cc2cc(C(CC(=O)O)c3ccc4c(nnn4C)c3C)ccc2C)Cc2ncccc2O1 (stereo partly drawn) [Example 79, 3-(1,4-Dimethyl-1H-benzo[d][1,2,3]triazol-5-yl)-3-(3-(((R)-2-ethyl-2,3-dihydropyrido[2,3-f][1,4]oxazepin-4(5H)-yl)methyl)-4-methylphenyl)propanoic acid] gave an EC50 [1] of 1000 to 10000 nM.

Compound Cc1ccc(C(CC(=O)O)c2ccc3c(nnn3C)c2C)cc1CN1Cc2ccc(C#N)cc2OC(C)(C)C1 (single isomer, unassigned) [Example 173] has an EC50 [1] of 10 to 100 nM.

CC[C@@H]1CN(Cc2cc([C@@H](c3ccc4c(nnn4CC)c3F)[C@@H](C)C(=O)O)ccc2C)Cc2ncccc2O1 [Example 191, (2R,3S)-3-(3-(((R)-2-Ethyl-2,3-dihydropyrido[2,3-f][1,4]oxazepin-4(5H)-yl)methyl)-4-methylphenyl)-3-(1-ethyl-4-fluoro-1H-benzo[d][1,2,3]triazol-5-yl)-2-methylpropanoic acid] gave an EC50 [1] of 1 to 10 nM.

In the case of Cc1ccc(C(c2ccc3c(nnn3C)c2C)C(C)(C)C(=O)O)cc1Cn1ccnc1CC1CCCCCC1 (stereo not shown) [Example 131, 3-(3-((2-(Cycloheptylmethyl)-1H-imidazol-1-yl)methyl)-4-methylphenyl)-3-(1,4-dimethyl-1H-benzo[d][1,2,3]triazol-5-yl)-2,2-dimethylpropanoic acid], the EC50 [1] is reported as 100 to 1000 nM.

In the case of CC[C@@H]1CN(Cc2cc(C(c3ccc4c(nnn4C)c3C)C(C)(C)C(=O)O)cnc2C)Cc2cnccc2O1 (stereo partly drawn) [Example 213, 3-(1,4-Dimethyl-1H-benzo[d][1,2,3]triazol-5-yl)-3-(5-(((R)-2-ethyl-2,3-dihydropyrido[3,4-f][1,4]oxazepin-4(5H)-yl)methyl)-6-methylpyridin-3-yl)-2,2-dimethylpropanoic acid, Trifluoroacetic Acid Salt], the EC50 [1] is reported as 100 to 1000 nM.

CCn1cc(CCC(c2ccc(C)c(CN3Cc4cccnc4OC(C)(C)C3)c2)C(C)(C)C(=O)O)nn1 (stereo not shown) [Example 223, 3-(3-((2,2-Dimethyl-2,3-dihydropyrido[3,2-f][1,4]oxazepin-4(5H)-yl)methyl)-4-methylphenyl)-5-(1-ethyl-1H-1,2,3-triazol-4-yl)-2,2-dimethylpentanoic Acid] gave an EC50 [1] of 1 to 10 nM.

Reference: patent US10604509B2, “Nrf2 regulators” (GlaxoSmithKline Intellectual Property Development Limited, priority 2015, dated 2020)
